Publication PMC5325082 (Molecular Pharmacology, 2017)

What was measured:
[1] = molecular target: T1, α9χα10χ (α9 and α10 extracellular domains fused to 5-HT3A) (UniProt P23979+P43144+Q9JLB5, L231I/L232I); experiment: [3H]-α-BTX radioligand binding, membranes of transfected tsA201 cells; parameters: species or system rat; conditions: ACh 1 mM alone vs standard mixture of nonradioactive ligands
T1 construct: the extracellular N-terminal domain of the α9 or α10 subunit; expressed in transfected cells; host or cells: tsA201 cells (HEK293-derived), membrane preparation
T1 sequence (P23979 whole entry, looked up, the tested form may be a part): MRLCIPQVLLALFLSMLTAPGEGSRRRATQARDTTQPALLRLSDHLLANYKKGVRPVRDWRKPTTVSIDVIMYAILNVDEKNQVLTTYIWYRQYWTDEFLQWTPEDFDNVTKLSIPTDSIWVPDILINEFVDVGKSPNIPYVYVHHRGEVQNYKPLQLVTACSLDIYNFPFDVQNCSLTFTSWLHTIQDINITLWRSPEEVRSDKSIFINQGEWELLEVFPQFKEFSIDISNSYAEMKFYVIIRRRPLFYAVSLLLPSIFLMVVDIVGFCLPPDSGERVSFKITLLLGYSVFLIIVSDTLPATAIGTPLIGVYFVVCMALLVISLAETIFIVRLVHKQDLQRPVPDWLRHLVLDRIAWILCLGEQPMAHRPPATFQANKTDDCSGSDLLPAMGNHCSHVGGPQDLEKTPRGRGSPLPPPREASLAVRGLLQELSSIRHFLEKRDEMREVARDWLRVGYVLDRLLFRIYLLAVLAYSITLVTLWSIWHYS
T1 sequence (P43144 whole entry, looked up, stated change not applied, the tested form may be a part): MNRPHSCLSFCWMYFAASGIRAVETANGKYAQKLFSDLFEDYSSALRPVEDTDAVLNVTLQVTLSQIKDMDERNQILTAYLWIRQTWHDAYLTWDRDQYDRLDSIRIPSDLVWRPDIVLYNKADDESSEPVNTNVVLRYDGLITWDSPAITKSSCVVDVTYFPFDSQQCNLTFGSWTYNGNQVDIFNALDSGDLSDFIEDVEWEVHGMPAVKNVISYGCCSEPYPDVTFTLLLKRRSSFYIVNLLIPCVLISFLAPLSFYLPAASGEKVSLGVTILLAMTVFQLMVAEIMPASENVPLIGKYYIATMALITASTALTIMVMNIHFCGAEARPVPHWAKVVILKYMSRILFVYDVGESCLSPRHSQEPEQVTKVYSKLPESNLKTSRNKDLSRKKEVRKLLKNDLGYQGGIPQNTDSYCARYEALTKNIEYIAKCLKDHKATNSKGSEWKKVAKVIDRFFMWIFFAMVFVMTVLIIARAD
T1 sequence (Q9JLB5 whole entry, looked up, stated change not applied, the tested form may be a part): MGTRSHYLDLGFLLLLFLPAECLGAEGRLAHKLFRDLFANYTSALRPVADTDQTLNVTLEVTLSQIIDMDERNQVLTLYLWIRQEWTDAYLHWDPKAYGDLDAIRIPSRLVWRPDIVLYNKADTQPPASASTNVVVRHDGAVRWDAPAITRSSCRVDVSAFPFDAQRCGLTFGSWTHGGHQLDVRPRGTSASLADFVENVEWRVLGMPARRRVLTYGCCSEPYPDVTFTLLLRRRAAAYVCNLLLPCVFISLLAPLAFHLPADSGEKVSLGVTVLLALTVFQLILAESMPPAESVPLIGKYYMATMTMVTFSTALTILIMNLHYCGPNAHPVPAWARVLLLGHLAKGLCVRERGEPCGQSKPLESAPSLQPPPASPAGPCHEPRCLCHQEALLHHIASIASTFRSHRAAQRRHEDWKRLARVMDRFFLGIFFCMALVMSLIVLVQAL
Procedure: (§1) Chimeric subunit cDNAs containing the extracellular N-terminal domain of the α9 or α10 subunit fused to the transmembrane and intracellular domain of the mouse 5-HT3A subunit have been described previously ([Baker et al., 2004]). The mammalian cell line tsA201 (derived from the human embryonic kidney 293 cell line) was obtained from Dr. William Green (University of Chicago, Chicago). Cells were cultured in Dulbecco’s modified Eagle’s medium (Invitrogen, Paisley, United Kingdom) containing 2 mM L-GlutaMAX (Invitrogen) plus 10% heat-inactivated fetal calf serum (Sigma, Poole, United Kingdom) with penicillin (100 U/ml) and streptomycin (100 µg/ml) and were maintained in a humidified incubator containing 5% CO2 at 37°C. Cells were transiently transfected using Effectene transfection reagent (QIAGEN, Crawley, United Kingdom) according to the manufacturer’s instructions. In all cases, cells were transfected overnight and assayed for expression approximately 40–48 hours after transfection. To ensure that the levels of radioligand binding were not influenced by differences in the amount of subunit cDNA expressed, the amount of each subunit plasmid DNA and also the total amount of plasmid DNA were kept constant when subunits were expressed singly and in combination. This was achieved by the inclusion of empty plasmid expression vector when single subunits were transfected.
(§2) Binding studies with [^3H]-α-bungarotoxin (α-BTX) in cell membrane preparations were performed essentially as described previously ([Lansdell and Millar, 2000]; [Harkness and Millar, 2002]). Membranes (typically, 10–100 µg of protein) were incubated with radioligand (final concentration 20 nM) for 150 minutes at 4°C in a total volume of 300 µl in the presence of protease inhibitors leupeptin (2 µg/ml) and pepstatin (1 µg/ml). Our standard protocol for determining nonspecific binding was the addition of 1 mM carbachol, 1 mM nicotine, and 10 µM methyllycaconitine to triplicate samples. […] In all cases the levels of specific binding were determined by subtracting the level of nonspecific binding from the total binding (both of which were determined in triplicate). The data were determined as means of three independent experiments, each performed in triplicate. Radioligand binding was assayed by filtration onto 0.5% polyethylenimine-presoaked Whatman GF/B filters (Sigma-Aldrich, Dorset, England) followed by rapid washing (typically, five washes, each of 4 ml) with ice-cold 10 mM phosphate buffer using a Brandel cell harvester, and radioactivity was determined by scintillation counting. […] Protein concentrations were determined using bovine serum albumin standards (Bio-Rad, Hercules, CA).

[2] = molecular target: T2, α9χα10χW55T (UniProt P23979+P43144+Q9JLB5, L231I/L232I/W81T); experiment: as above; parameters: species or system rat; conditions: ACh 1 mM alone vs standard mixture of nonradioactive ligands
T2 construct: containing the extracellular N-terminal domain of the α9 or α10 subunit fused to the transmembrane and intracellular domain of the mouse 5-HT3A subunit; mouse 5-HT3A subunit transmembrane and intracellular domain (fusion partner); expressed in transfected cells; host or cells: tsA201 (derived from human embryonic kidney 293), transient transfection; membrane preparations
T2 sequence (P23979 whole entry, looked up, stated change not applied, the tested form may be a part): as the sequence (P23979 whole entry, looked up, the tested form may be a part) above
T2 sequence (P43144 whole entry, looked up, stated change not applied, the tested form may be a part): as the sequence (P43144 whole entry, looked up, stated change not applied, the tested form may be a part) above
T2 sequence (Q9JLB5 whole entry, looked up, stated change not applied, the tested form may be a part): as the sequence (Q9JLB5 whole entry, looked up, stated change not applied, the tested form may be a part) above
Procedure: as §1, §2

[3] = molecular target: rat α9α10CC/SS receptor (Rattus norvegicus, UniProt P43144+Q9JLB5, C218S/C219S); experiment: ACh-evoked currents, two-electrode voltage clamp in Xenopus laevis oocytes; type: cell-based
rat α9α10CC/SS receptor, sequence (P43144 26-479, stated change not applied): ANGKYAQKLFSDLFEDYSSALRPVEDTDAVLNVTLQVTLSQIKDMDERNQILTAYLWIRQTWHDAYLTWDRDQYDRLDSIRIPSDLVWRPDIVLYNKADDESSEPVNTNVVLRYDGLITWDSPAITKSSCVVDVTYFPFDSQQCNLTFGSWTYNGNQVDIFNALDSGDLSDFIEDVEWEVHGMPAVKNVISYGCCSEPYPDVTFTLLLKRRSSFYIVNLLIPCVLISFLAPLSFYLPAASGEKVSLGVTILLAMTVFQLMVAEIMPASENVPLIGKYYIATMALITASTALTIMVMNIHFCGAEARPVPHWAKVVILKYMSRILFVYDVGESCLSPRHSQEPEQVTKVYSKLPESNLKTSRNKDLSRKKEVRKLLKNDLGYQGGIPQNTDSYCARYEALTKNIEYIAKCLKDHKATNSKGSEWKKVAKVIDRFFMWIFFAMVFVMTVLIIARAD
rat α9α10CC/SS receptor, sequence (Q9JLB5 25-447 C218S/C219S): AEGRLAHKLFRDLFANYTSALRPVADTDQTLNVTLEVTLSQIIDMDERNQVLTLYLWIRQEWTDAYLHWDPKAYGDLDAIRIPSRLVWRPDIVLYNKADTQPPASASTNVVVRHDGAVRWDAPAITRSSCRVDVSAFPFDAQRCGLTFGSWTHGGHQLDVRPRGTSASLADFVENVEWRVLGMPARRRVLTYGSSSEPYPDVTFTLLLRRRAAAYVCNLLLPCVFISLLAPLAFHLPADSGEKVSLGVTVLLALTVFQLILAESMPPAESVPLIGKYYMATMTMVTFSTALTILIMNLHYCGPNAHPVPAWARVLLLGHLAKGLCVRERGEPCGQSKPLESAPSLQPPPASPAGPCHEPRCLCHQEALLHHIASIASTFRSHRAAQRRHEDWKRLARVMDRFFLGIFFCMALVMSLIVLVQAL
Description: (§3) cDNAs encoding Gallus gallus (chick) or Rattus norvegicus (rat) α9 and α10 nAChR subunits were subcloned into a modified pGEMHE vector for expression studies in Xenopus laevis oocytes. Capped cRNAs were in vitro transcribed from linearized plasmid DNA templates using RiboMAX Large Scale RNA Production System (Promega, Madison, WI). Mutant subunits were produced using Quick Change XL II kit (Stratagene, La Jolla, CA). Amino acid sequences of rat and chicken α9, α10, and Torpedo α1 subunits were aligned using ClustalW (EMBL-EBI, Wellcome Genome Campus, Hinxton, Cambridgeshire). Residues were numbered according to the corresponding Torpedo α1 subunit mature protein ([Karlin, 2002]).
(§4) The maintenance of Xenopus laevis and the preparation and cRNA injection of stage V and VI oocytes have been described in detail elsewhere ([Verbitsky et al., 2000]). Typically, oocytes were injected with 50 nl of RNase-free water containing 0.01–1.0 ng of cRNA (at a 1:1 molar ratio when pairwise combined) and maintained in Barth’s solution at 18°C. Electrophysiological recordings were performed 2–6 days after cRNA injection under two-electrode voltage clamp with an Oocyte Clamp OC-725B or C amplifier (Warner Instruments Corp., Hamden, CT). Recordings were filtered at a corner frequency of 10 Hz using a 900BT Tunable Active Filter (Frequency Devices Inc., Ottawa, IL). Data acquisition was performed using a Patch Panel PP-50 LAB/1 interface (Warner Instruments Corp.) at a rate of 10 points per second. Both voltage and current electrodes were filled with 3 M KCl and had resistances of ∼1 MΩ. Data were analyzed using Clampfit from the pClamp 6.1 software (Molecular Devices, Sunnyvale, CA). During electrophysiological recordings, oocytes were continuously superfused (∼15 ml/min) with normal frog saline composed of: 115 mM NaCl, 2.5 mM KCl, 1.8 mM CaCl2, and 10 mM HEPES buffer, pH 7.2. […] Unless otherwise indicated, the membrane potential was clamped to −70 mV. To minimize activation of the endogenous Ca^2+ sensitive chloride current ([Elgoyhen et al., 2001]), all experiments were performed in oocytes incubated with the Ca^2+ chelator 1,2-bis(2-aminophenoxy)ethane-N,N,N′,N′-tetraacetic acid (acetoxymethyl ester) (100 µM) for 3 hours before electrophysiological recordings.
(§5) Concentration-response curves were normalized to the maximal agonist response in each oocyte. The mean and S.E.M. values of the responses are represented. Agonist concentration-response curves were iteratively fitted, using Prism 5 software (GraphPad Software Inc., La Jolla, CA), with the equation: I/Imax = A^nH/(A^nH + EC50^nH), where I is the peak inward current evoked by the agonist at concentration A; Imax is the current evoked by the concentration of the agonist eliciting a maximal response; EC50 is the concentration of the agonist inducing a half-maximal current response; and nH is the Hill coefficient. Data were analyzed using Clampfit from the pClamp 6.1 software.

[4] = molecular target: rat α9Y190Tα10 receptor (Rattus norvegicus, UniProt P43144+Q9JLB5, Y217T); experiment: as above; type: cell-based
rat α9Y190Tα10 receptor, sequence (P43144 26-479 Y217T): as the sequence (P43144 26-479, stated change not applied) above, with Y192T counted along it
rat α9Y190Tα10 receptor, sequence (Q9JLB5 25-447): as the sequence (Q9JLB5 25-447 C218S/C219S) above, with S194C, S195C counted along it
Description: as §3, §4, §5

[5] = molecular target: rat α9CC/SSα10 receptor (Rattus norvegicus, UniProt P43144+Q9JLB5, C219S/C220S); experiment: as above; type: cell-based
rat α9CC/SSα10 receptor, sequence (P43144 26-479 C219S/C220S): as the sequence (P43144 26-479, stated change not applied) above, with C194S, C195S counted along it
rat α9CC/SSα10 receptor, sequence (Q9JLB5 25-447, stated change not applied): as the sequence (Q9JLB5 25-447 C218S/C219S) above, with S194C, S195C counted along it
Description: as §3, §4, §5

[6] = molecular target: rat α9CC/SSα10CC/SS receptor (Rattus norvegicus, UniProt P43144+Q9JLB5, C218S/C219S/C220S); experiment: as above; type: cell-based
rat α9CC/SSα10CC/SS receptor, sequence (P43144 26-479 C219S/C220S): as the sequence (P43144 26-479, stated change not applied) above, with C194S, C195S counted along it
rat α9CC/SSα10CC/SS receptor, sequence (Q9JLB5 25-447 C218S/C219S): as the sequence (Q9JLB5 25-447 C218S/C219S) above
Description: as §3, §4, §5

With `CC(=O)OCC[N+](C)(C)C` [ACh, acetylcholine] the “Displacement of bound [3H]-α-BTX by ACh” value [1] was “displaced as efficiently with ACh alone as with our standard mixture of nonradioactive competing ligands”, the “Displacement of bound [3H]-α-BTX by ACh” value [2] was “displaced as efficiently with ACh alone as with our standard mixture of nonradioactive competing ligands” and the “Imax (maximal evoked current)” value [3] was 571 ± 113 nA. For the same compound, the “Imax (maximal evoked current)” value [4] was 112 ± 6 nA, the “Imax (maximal evoked current)” value [5] was 402 ± 103 nA and the “Imax (maximal evoked current)” value [6] was 360 ± 119 nA.
